Assay results published in patent US20240350522A1, “HYGROMYCIN A FOR TREATMENT OF DISEASES AND INFECTIONS” (FLIGHTPATH BIOSCIENCES, INC., priority 2021, published 2024).
Read-outs that look alike come from different tables or passages of the source.

Columns and labels:
F. nucleatum fusiforme = test: Kirby-Bauer diffusion assay; type: cell-based; details: Fusobacterium nucleatum, mean (SEM), read-out: size of zone inhibition (mm); for zone of inhibition at 5 µg/disc: Hyg A 5 μg per disc; for zone of inhibition at 10 µg/disc: Hyg A 10 μg per disc; for zone of inhibition at 20 µg/disc: Hyg A 20 μg per disc; for zone of inhibition at 40 µg/disc: Hyg A 40 μg per disc
Method: (§1) Three representatives of 6 subspecies of Fusobacterium nucleatum (F. nucleatum) for a total of 18 strains were tested in the experiment. The sub species and strains are described in Table 2.
(§2) All strains were verified by 16S V3/V6 sequence analysis prior to use. The methods described herein were performed in an anaerobic chamber at 37° C. All media and plates were degassed prior to use.
(§3) Hygromycin A (Hyg A) discs were prepared by solubilizing Hyg A in distilled water and sterile filtered. Clindamycin was used as a positive control. Defined amounts of hygromycin A (40, 20, 10 or 5 micrograms), clindamycin (2 micrograms) or sterile distilled water were absorbed onto Kirby-Bauer discs in a biosafety cabinet.
(§4) An overnight culture was grown in Wilkins-Chalgren (WC) broth and back-diluted 1:10 in fresh broth. When an OD 600 reading reached 0.5, 300 μL of the log phase culture was plated onto WC agar plates. The plates were sectioned into quadrants and a Kirby-Bauer (KB) disc impregnated with a defined amount of hygromycin A was placed in each quadrant. Plates were prepared thus in triplicate and the four amounts of hygromycin A were 40, 20 10 and 5 micrograms. The same volume of culture was spread on fourth plate sectioned into six sections for three positive and three negative controls. KB discs with water served as negative controls and KB discs impregnated with 2 micrograms of clindamycin served as positive controls. […] Table 3, Table 4, Table 5, Table 6, Table 7, Table 8 show the mean size of zone inhibitions for each of the subspecies tested using increasing concentrations of hygromycin A where the standard error of mean is represented in parenthesis.
(§5) The amount of hygromycin A was plotted against the size of the zone of inhibition for each strain tested.

F. nucleatum nucleatum = test: Kirby-Bauer diffusion assay; type: cell-based; details: Fusobacterium nucleatum, mean (SEM), read-out: size of zone inhibition (mm); for zone of inhibition at 5 µg/disc: Hyg A 5 μg per disc; for zone of inhibition at 10 µg/disc: Hyg A 10 μg per disc; for zone of inhibition at 20 µg/disc: Hyg A 20 μg per disc; for zone of inhibition at 40 µg/disc: Hyg A 40 μg per disc
Method: as §1, §2, §3, §4, §5

F. nucleatum polymorphum = test: Kirby-Bauer diffusion assay; type: cell-based; details: Fusobacterium nucleatum, mean (SEM), read-out: size of zone inhibition (mm); for zone of inhibition at 5 µg/disc: Hyg A 5 μg per disc; for zone of inhibition at 10 µg/disc: Hyg A 10 μg per disc; for zone of inhibition at 20 µg/disc: Hyg A 20 μg per disc; for zone of inhibition at 40 µg/disc: Hyg A 40 μg per disc
Method: as §1, §2, §3, §4, §5

[1] = test system: F. nucleatum periodonticum; test: Kirby-Bauer diffusion assay; type: cell-based; details: Fusobacterium nucleatum, mean (SEM), read-out: size of zone inhibition (mm); for zone of inhibition at 5 µg/disc: Hyg A 5 μg per disc; for zone of inhibition at 10 µg/disc: Hyg A 10 μg per disc; for zone of inhibition at 20 µg/disc: Hyg A 20 μg per disc; for zone of inhibition at 40 µg/disc: Hyg A 40 μg per disc
Method: as §1, §2, §3, §4, §5

[2] = test system: Streptococcus salivarius ATCC13419; test: MIC of Hyg A against S. salivarius; type: cell-based
F. nucleatum vincentii = test: Kirby-Bauer diffusion assay; type: cell-based, Fusobacterium nucleatum; details: for zone of inhibition at 5 µg/disc / zone of inhibition at 10 µg/disc / zone of inhibition at 20 µg/disc / zone of inhibition at 40 µg/disc: Fusobacterium nucleatum, mean (SEM), read-out: size of zone inhibition (mm); for zone of inhibition at 5 µg/disc: Hyg A 5 μg per disc; for zone of inhibition at 10 µg/disc: Hyg A 10 μg per disc; for zone of inhibition at 20 µg/disc: Hyg A 20 μg per disc; for zone of inhibition at 40 µg/disc: Hyg A 40 μg per disc
Method: as §1, §2, §3, §4, §5

F. nucleatum animalis = test: Kirby-Bauer diffusion assay; type: cell-based, Fusobacterium nucleatum; details: for zone of inhibition at 5 µg/disc / zone of inhibition at 10 µg/disc / zone of inhibition at 20 µg/disc / zone of inhibition at 40 µg/disc: Fusobacterium nucleatum, mean (SEM), read-out: size of zone inhibition (mm); for zone of inhibition at 5 µg/disc: Hyg A 5 μg per disc; for zone of inhibition at 10 µg/disc: Hyg A 10 μg per disc; for zone of inhibition at 20 µg/disc: Hyg A 20 μg per disc; for zone of inhibition at 40 µg/disc: Hyg A 40 μg per disc
Method: as §1, §2, §3, §4, §5

[3] = test system: Parvimonas micra (ATCC 33270); test: MIC of Hyg A against P. micra; type: cell-based; details: ATCC33270
SF1Ep cells = test: Cytotoxicity assay, Cell Proliferation Reagent WST-1; type: cell-based, rabbit; details: day 7; any concentration tested (0.03-3.84 μg/mL)
Method: Cytotoxicity assay was performed according to the Cell Proliferation Reagent WST-1 protocol (Attached; Roche, Basel, Switzerland). Absorbance was measured after 1 hour incubation with the reagent.

[4] = test system: Parvimonas micra (ATCC 33270); test: MBC of Hyg A against P. micra; type: cell-based; details: for MBC: ATCC33270
[5] = strain 203C15, 42 mm = assigned maximum
[6] = strain 203L25, 42 mm = assigned maximum
[7] = strain 25586 (second column so headed)
[8] = strain 25586, 42 mm = assigned maximum

MIC ([2]; Streptococcus salivarius ATCC13419, read-out: MIC): 10 µg/mL
MIC ([2]; Streptococcus salivarius, ATCC13419, 96 h, S. salivarius, 5% CO2, extended incubation (4 days), read-out: MIC): 20 µg/mL
MIC ([2]; Streptococcus salivarius, ATCC13419, S. salivarius 13419, experiment 1, read-out: MIC (μg/ml) 1): 10 µg/mL
MIC ([2]; Streptococcus salivarius, ATCC13419, S. salivarius 13419, experiment 2, read-out: MIC (μg/ml) 2): 10 µg/mL
MIC ([2]; Streptococcus salivarius, ATCC13419, S. salivarius, 5% CO2, 24 hours incubation, read-out: MIC): 10 µg/mL
MIC ([3]; Parvimonas micra ATCC 33270, read-out: MIC): 2 µg/mL
MIC ([3]; Parvimonas micra, P. micra 33270, experiment 1, read-out: MIC (μg/ml) 1): 2 µg/mL
MIC ([3]; Parvimonas micra, P. micra 33270, experiment 2, read-out: MIC (μg/ml) 2): 2 µg/mL
MIC:MBC ratio ([4]; P. micra 33270): >0.2
Compound: CC(=O)[C@H]1O[C@@H](Oc2ccc(/C=C(\C)C(=O)N[C@@H]3[C@H](O)[C@@H](O)[C@H]4OCO[C@H]4[C@@H]3O)cc2O)[C@@H](O)[C@@H]1O [Hyg A, Hygromycin A]
zone of inhibition at 5 µg/disc (F. nucleatum fusiforme; strain 203C15): 18 mm
zone of inhibition at 10 µg/disc (F. nucleatum fusiforme; strain 203C15): 24 mm
zone of inhibition at 20 µg/disc (F. nucleatum fusiforme; [5]): 42 mm
zone of inhibition at 40 µg/disc (F. nucleatum fusiforme; [5]): 42 mm
zone of inhibition at 5 µg/disc (F. nucleatum fusiforme; strain 203L25): 25 mm
zone of inhibition at 10 µg/disc (F. nucleatum fusiforme; strain 203L25): 28.7 mm
zone of inhibition at 20 µg/disc (F. nucleatum fusiforme; [6]): 42 mm
zone of inhibition at 40 µg/disc (F. nucleatum fusiforme; [6]): 42 mm
zone of inhibition at 5 µg/disc (F. nucleatum fusiforme; strain 203L30): 22.3 mm
zone of inhibition at 10 µg/disc (F. nucleatum fusiforme; strain 203L30): 24.3 mm
zone of inhibition at 20 µg/disc (F. nucleatum fusiforme; strain 203L30): 28 mm
zone of inhibition at 40 µg/disc (F. nucleatum fusiforme; strain 203L30): 30 mm
zone of inhibition at 5 µg/disc (F. nucleatum nucleatum; strain 203L34): 24 mm
zone of inhibition at 10 µg/disc (F. nucleatum nucleatum; strain 203L34): 30 mm
zone of inhibition at 20 µg/disc (F. nucleatum nucleatum; strain 203L34): 39.7 mm
zone of inhibition at 40 µg/disc (F. nucleatum nucleatum; strain 203L34, 42 mm = assigned maximum): 42 mm
zone of inhibition at 5 µg/disc (F. nucleatum nucleatum; strain 25586 (first column)): 16 mm
zone of inhibition at 10 µg/disc (F. nucleatum nucleatum; strain 25586 (first column)): 20 mm
zone of inhibition at 5 µg/disc (F. nucleatum nucleatum; [7]): 25.7 mm
zone of inhibition at 10 µg/disc (F. nucleatum nucleatum; [7]): 30 mm
zone of inhibition at 20 µg/disc (F. nucleatum nucleatum; [8]): 42 mm
zone of inhibition at 20 µg/disc (F. nucleatum nucleatum; strain 25586): 26 mm
zone of inhibition at 40 µg/disc (F. nucleatum nucleatum; [8]): 42 mm
zone of inhibition at 40 µg/disc (F. nucleatum nucleatum; strain 25586): 30 mm
zone of inhibition at 5 µg/disc (F. nucleatum polymorphum; strain 13_3C EAV005): 16.7 mm
zone of inhibition at 10 µg/disc (F. nucleatum polymorphum; strain 13_3C EAV005): 20 mm
zone of inhibition at 20 µg/disc (F. nucleatum polymorphum; strain 13_3C EAV005): 25.7 mm
zone of inhibition at 40 µg/disc (F. nucleatum polymorphum; strain 13_3C EAV005): 27.3 mm
zone of inhibition at 5 µg/disc (F. nucleatum polymorphum; strain 203L28): 20.3 mm
zone of inhibition at 10 µg/disc (F. nucleatum polymorphum; strain 203L28): 23 mm
zone of inhibition at 20 µg/disc (F. nucleatum polymorphum; strain 203L28): 24 mm
zone of inhibition at 40 µg/disc (F. nucleatum polymorphum; strain 203L28): 30.3 mm
zone of inhibition at 5 µg/disc (F. nucleatum polymorphum; strain 203L29): 18.3 mm
zone of inhibition at 10 µg/disc (F. nucleatum polymorphum; strain 203L29): 20.3 mm
zone of inhibition at 20 µg/disc (F. nucleatum polymorphum; strain 203L29): 24 mm
zone of inhibition at 40 µg/disc (F. nucleatum polymorphum; strain 203L29): 26.7 mm
zone of inhibition at 5 µg/disc ([1]; strain 2_1_31 EAV015): 20.3 mm
zone of inhibition at 10 µg/disc ([1]; strain 2_1_31 EAV015): 23.3 mm
zone of inhibition at 20 µg/disc ([1]; strain 2_1_31 EAV015): 25.3 mm
zone of inhibition at 40 µg/disc ([1]; strain 2_1_31 EAV015): 30 mm
zone of inhibition at 5 µg/disc ([1]; strain 3_1_7B): 29.3 mm
zone of inhibition at 10 µg/disc ([1]; strain 3_1_7B): 34.3 mm
zone of inhibition at 20 µg/disc ([1]; strain 3_1_7B): 36 mm
zone of inhibition at 40 µg/disc ([1]; strain 3_1_7B): 40 mm
zone of inhibition at 5 µg/disc ([1]; strain 209B32): 22 mm
zone of inhibition at 10 µg/disc ([1]; strain 209B32): 25.7 mm
zone of inhibition at 20 µg/disc ([1]; strain 209B32): 30.7 mm
zone of inhibition at 40 µg/disc ([1]; strain 209B32): 35 mm
zone of inhibition at 5 µg/disc (F. nucleatum vincentii; strain 3/1/36A2): 19 mm
zone of inhibition at 10 µg/disc (F. nucleatum vincentii; strain 3/1/36A2): 21.3 mm
zone of inhibition at 20 µg/disc (F. nucleatum vincentii; strain 3/1/36A2): 24.7 mm
zone of inhibition at 40 µg/disc (F. nucleatum vincentii; strain 3/1/36A2): 27.7 mm
zone of inhibition at 5 µg/disc (F. nucleatum vincentii; strain 215A9): 0 mm
zone of inhibition at 10 µg/disc (F. nucleatum vincentii; strain 215A9): 0 mm
zone of inhibition at 20 µg/disc (F. nucleatum vincentii; strain 215A9): 0 mm
zone of inhibition at 40 µg/disc (F. nucleatum vincentii; strain 215A9): 0 mm
zone of inhibition at 5 µg/disc (F. nucleatum vincentii; strain CC53): 16.3 mm
zone of inhibition at 10 µg/disc (F. nucleatum vincentii; strain CC53): 21.3 mm
zone of inhibition at 20 µg/disc (F. nucleatum vincentii; strain CC53): 24 mm
zone of inhibition at 40 µg/disc (F. nucleatum vincentii; strain CC53): 27.3 mm
strain sensitivity in words (F. nucleatum vincentii; strain 215A9, 5-40 μg discs): fully resistant
zone of inhibition at 5 µg/disc (F. nucleatum animalis; strain 7_1): 18.3 mm
zone of inhibition at 10 µg/disc (F. nucleatum animalis; strain 7_1): 18 mm
zone of inhibition at 20 µg/disc (F. nucleatum animalis; strain 7_1): 22.7 mm
zone of inhibition at 40 µg/disc (F. nucleatum animalis; strain 7_1): 24.3 mm
zone of inhibition at 5 µg/disc (F. nucleatum animalis; strain 218A8): 19.7 mm
zone of inhibition at 10 µg/disc (F. nucleatum animalis; strain 218A8): 21.7 mm
zone of inhibition at 20 µg/disc (F. nucleatum animalis; strain 218A8): 29.7 mm
zone of inhibition at 40 µg/disc (F. nucleatum animalis; strain 218A8, 42 mm = assigned maximum): 42 mm
zone of inhibition at 5 µg/disc (F. nucleatum animalis; strain CRC 7_3 JVN3C1): 0 mm
zone of inhibition at 10 µg/disc (F. nucleatum animalis; strain CRC 7_3 JVN3C1): 0 mm
zone of inhibition at 20 µg/disc (F. nucleatum animalis; strain CRC 7_3 JVN3C1): 0 mm
zone of inhibition at 40 µg/disc (F. nucleatum animalis; strain CRC 7_3 JVN3C1): 0 mm
strain sensitivity in words (F. nucleatum animalis; strain CRC 7_3JVN3C1, 5-40 μg discs): fully resistant
toxicity to SF1Ep cells (WST-1) (SF1Ep cells): not toxic
MBC ([4]; Parvimonas micra ATCC 33270, read-out: MBC): > 10 µg/mL
type of effect (bactericidal/bacteriostatic) ([4]; P. micra): bacteriostatic
MBC ([4]; Parvimonas micra, P. micra 33270, experiment 1, read-out: MBC (μg/ml) 1): > 10 µg/mL
MBC ([4]; Parvimonas micra, P. micra 33270, experiment 2, read-out: MBC (μg/ml) 2): > 10 µg/mL
